The values that follow come from US7250268B2, “Assay for measuring IκB kinase activity and identifying IκB kinase modulators” (Bristol-Myers Squibb Company, priority 2003, dated 2007).

Where a SMILES comes first, the peptide text is derived from it. [ ]: non-standard residue; d: D form. The star is where a group is joined. Nle = CCCC[C@H](N)C(=O)O; Cbz = O=C(OCc1ccccc1)*

Series [1] has as its target T1, proteasome (Homo sapiens, UniProt P28074).
T1 construct: other: Jurkat IκB-Bla cells, TNFα stimulation; effect on the TNFα-stimulated decrease in reporter level; other: 10 μM for 60 minutes prior to TNFα 10 ng/ml; CCF2/AM
T1 sequence (P28074 60-263): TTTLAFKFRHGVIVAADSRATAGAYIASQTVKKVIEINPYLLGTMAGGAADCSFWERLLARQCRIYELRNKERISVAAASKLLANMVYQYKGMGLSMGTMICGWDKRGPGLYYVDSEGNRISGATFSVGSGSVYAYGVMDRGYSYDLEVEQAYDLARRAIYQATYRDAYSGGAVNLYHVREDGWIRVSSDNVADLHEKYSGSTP
T1 sequence (P28072 35-239 partner): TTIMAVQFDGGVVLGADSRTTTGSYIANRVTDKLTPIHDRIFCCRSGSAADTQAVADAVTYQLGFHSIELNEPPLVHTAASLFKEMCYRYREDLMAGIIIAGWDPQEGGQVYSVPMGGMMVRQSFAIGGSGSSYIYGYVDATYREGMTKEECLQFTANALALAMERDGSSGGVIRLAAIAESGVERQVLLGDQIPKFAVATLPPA
T1 sequence (Q99436 44-277 partner): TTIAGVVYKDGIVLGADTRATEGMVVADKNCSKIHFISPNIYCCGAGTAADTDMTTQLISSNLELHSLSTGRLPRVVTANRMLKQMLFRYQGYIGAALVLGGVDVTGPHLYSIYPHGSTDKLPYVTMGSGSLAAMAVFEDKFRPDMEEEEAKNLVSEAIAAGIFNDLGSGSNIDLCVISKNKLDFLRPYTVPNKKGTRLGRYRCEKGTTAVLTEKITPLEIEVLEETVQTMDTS
The experiment in a line: Jurkat IκB-Bla reporter assay, inhibition of the TNFα-stimulated decrease in reporter level by proteasome inhibitors. Format: cell-based. The method, then:
(§1) Therefore, the requirement of proteasome activity on β-lactamase activity was tested. […] Reporter activity was determined using CCF2/AM.

Series [2] relates to proteasome. The description is as above. The settings on record: 10 μM, no TNFα; FIG. 10. Format: cell-based, Human. The method, then:
as §1

For the next series, the system named is Jurkat IκB-Bla cells. In words: Responsiveness of Jurkat IκB-Bla cells to proinflammatory treatments that activate the NFκB pathway. Format: cell-based. The method, then: The responsiveness of the Jurkat IκB-Bla cells to proinflammatory treatments known to activate the NFκB pathway was tested. Cells were treated with 10 ng/ml TNFα, 10 nM PMA, 10 μg/ml PHA or 100 ng/ml IL-1β for the times indicated in FIG. 8A and then loaded with CCF2 and read on a fluorescence plate reader. […] The apparent insensitivity to IL-1β may be explained by low expression of IL-1 receptor in Jurkat cells.
To establish that the TNFα-stimulated decrease in β-lactamase activity was due to phosphorylation of IκB on serines-32 and -36, the responsiveness of Jurkat cells expressing the S32A, S36A IκB mutant as a fusion with β-lactamase was tested. The IκB(S32A, S36A)-Bla cell line was created exactly as described above for wild-type IκB-Bla cells. The cells were treated with 10 ng/ml TNFα for 30 minutes and then loaded with CCF2/AM. As shown in the comparison of wild-type construct to mutant in FIGS. 9A and 9B, respectively, the mutation of serines-32 and -36 abolished the decrease in β-lactamase activity in response to TNFα treatment.

Consider `CCCC[C@@H](C=O)NC(=O)[C@H](CC(C)C)NC(=O)[C@H](CC(C)C)NC(C)=O` [ALLN] (Ac-Leu-Leu-[Nle]-aldehyde), for which the IC50 on proteasome [1] (Jurkat IκB-Bla cells, TNFα stimulation, data not shown, read-out: IC50 for inhibition of the TNFα-stimulated decrease in reporter levels) is 5 µM.

For the compound `CC(C)C[C@@H](C=O)NC(=O)[C@H](CC(C)C)NC(=O)[C@H](CC(C)C)NC(=O)OCc1ccccc1` [MG132] (Cbz-Leu-Leu-Leu-aldehyde), the “effect on the TNFα-stimulated decrease in reporter level” value on proteasome [1] (10 μM for 60 minutes prior to TNFα 10 ng/ml, CCF2/AM, FIG. 10) is on record as “efficiently inhibited”. Besides, the “effect of inhibitor alone on reporter levels” value in the series on proteasome [2] is “little to no effect”.

With `C[C@@H]1C[C@@H]([C@H](O)CC2CC(=O)NC(=O)C2)C(=O)[C@@H](C)C1` [cycloheximide], in the series with Jurkat IκB-Bla cells (100 μg/ml added at the time of TNFα addition (10 ng/ml, 30 minutes), FIG. 9), the “effect of blocking protein synthesis on the TNFα-stimulated decrease in β-lactamase activity” value was “did not have a strong synergistic effect”. Take “IL-1β: proinflammatory cytokine; low IL-1 receptor expression in Jurkat cells suggested”: the “response of IκB-Bla reporter level (β-lactamase activity) to treatment” value in the series with Jurkat IκB-Bla cells (10 nM PMA, 10 μg/ml PHA or 100 ng/ml IL-1β, extended treatment for PMA and PHA, FIG. 8A) is on record as “insensitivity”. Take TNFα: the “decrease in β-lactamase activity” value with Jurkat IκB-Bla cells (10 ng/ml, within 30 minutes, CCF2, FIG. 8A) amounted to 2 fold.
